Measurements reported in ChEMBL document CHEMBL1201862, “PubChem BioAssay data set” (2004).
Activity calls are given as the source filed them.

Legend:
[1] = inhibitors of Bluetongue virus cytopathic effect, confirmation, arbovirus, BSR cells (AID 1250); format: functional;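 further: protection from viral cytopathic effect measured as cell viability by ATP luminescence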
[2] = Shn3 3'UTR reporter inhibitors, dose response, cell-based, Clone20 osteoblasts, firefly luciferase, cherry-picked (AID 624132); format: functional;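 further: firefly luciferase luminescence from reporter carrying the Shn3 3'UTR in osteoblasts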
HEK293 [3] = assay: cells; format: functional, cell-based; conditions: Homo sapiens
[4] = molecular target: Nucleotide-binding oligomerization domain-containing protein 2 (Homo sapiens, UniProt Q9HC29); assay: NOD2 signaling inhibitors, cell-based, luminescence, uHTS, HEK293 (AID 1566); format: functional
Nucleotide-binding oligomerization domain-containing protein 2, sequence (Q9HC29 whole entry, the tested form may be a part): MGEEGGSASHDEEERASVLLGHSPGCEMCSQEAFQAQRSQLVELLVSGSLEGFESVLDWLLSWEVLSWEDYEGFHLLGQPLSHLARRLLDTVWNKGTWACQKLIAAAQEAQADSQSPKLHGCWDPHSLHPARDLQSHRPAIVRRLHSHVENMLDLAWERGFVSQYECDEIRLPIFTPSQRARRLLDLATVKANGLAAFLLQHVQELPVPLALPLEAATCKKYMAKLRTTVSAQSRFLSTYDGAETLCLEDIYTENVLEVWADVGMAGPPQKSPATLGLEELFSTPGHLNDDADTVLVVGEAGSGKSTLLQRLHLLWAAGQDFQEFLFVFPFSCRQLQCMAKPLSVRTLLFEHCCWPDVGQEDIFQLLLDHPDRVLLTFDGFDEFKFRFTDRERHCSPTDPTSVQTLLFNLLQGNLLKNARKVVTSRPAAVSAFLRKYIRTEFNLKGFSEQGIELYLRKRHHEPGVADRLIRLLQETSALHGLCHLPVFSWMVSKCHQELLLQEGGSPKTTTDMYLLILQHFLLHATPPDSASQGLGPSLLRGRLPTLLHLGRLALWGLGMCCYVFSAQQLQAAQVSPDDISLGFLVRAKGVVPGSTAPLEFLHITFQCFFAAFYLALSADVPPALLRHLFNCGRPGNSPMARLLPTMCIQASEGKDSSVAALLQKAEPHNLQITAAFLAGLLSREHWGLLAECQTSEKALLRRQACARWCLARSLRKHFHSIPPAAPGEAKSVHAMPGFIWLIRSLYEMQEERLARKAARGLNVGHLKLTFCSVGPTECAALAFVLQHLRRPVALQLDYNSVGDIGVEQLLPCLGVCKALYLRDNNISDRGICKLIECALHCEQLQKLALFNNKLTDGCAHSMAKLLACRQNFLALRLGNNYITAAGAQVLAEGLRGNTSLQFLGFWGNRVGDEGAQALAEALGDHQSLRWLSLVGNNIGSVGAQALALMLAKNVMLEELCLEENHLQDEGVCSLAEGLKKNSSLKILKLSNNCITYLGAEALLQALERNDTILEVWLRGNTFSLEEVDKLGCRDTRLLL

HEK293 [5] = assay: cells; format: functional, cell-based; conditions: Homo sapiens; remark: listed apart in the source
HEK293 [6] = assay: NOD2 signaling inhibitors in MDP-stimulated cells, cell-based, uHTS, luminescence (AID 2001); format: functional; conditions: Homo sapiens
[7] = molecular target: ATP-dependent molecular chaperone HSP82 (Candida albicans (strain WO-1) (Yeast), UniProt C4YTQ8); assay: loss of DOC-induced GRE-beta-galactosidase reporter signal, dose response, Hsp90 inhibitor project, S. cerevisiae, luminescence (AID 2400); format: functional, cell-based;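 further: beta-galactosidase luminescence from glucocorticoid response element reporter as proxy for Hsp90 function; inhibitor potency where signal loss means Hsp90 inhibition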
ATP-dependent molecular chaperone HSP82, sequence (C4YTQ8 whole entry): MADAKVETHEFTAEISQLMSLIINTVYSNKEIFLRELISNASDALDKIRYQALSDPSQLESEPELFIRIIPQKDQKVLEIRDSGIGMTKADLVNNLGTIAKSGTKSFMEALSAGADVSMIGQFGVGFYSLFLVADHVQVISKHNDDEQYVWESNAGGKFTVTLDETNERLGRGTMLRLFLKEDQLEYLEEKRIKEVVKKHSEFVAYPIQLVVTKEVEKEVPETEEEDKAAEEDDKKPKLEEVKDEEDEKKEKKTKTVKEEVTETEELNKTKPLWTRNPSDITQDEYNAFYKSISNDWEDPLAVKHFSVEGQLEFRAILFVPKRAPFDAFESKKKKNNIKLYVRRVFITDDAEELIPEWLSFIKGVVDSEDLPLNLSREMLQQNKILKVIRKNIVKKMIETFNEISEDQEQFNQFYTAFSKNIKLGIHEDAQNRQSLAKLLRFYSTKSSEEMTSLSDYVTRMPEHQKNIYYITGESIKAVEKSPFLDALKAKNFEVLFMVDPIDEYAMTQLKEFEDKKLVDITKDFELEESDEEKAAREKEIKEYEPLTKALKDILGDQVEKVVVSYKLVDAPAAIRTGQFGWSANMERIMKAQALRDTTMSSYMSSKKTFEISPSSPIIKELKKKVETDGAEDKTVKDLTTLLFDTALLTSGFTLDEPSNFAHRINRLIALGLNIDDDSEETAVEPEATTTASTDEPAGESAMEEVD

Tumor necrosis factor = Tumor necrosis factor (Homo sapiens, UniProt P01375); assay: TNFa-triggered NF-kB activation inhibitors, SAR follow-up, cell-based, revised (AID 2337); format: functional
Tumor necrosis factor, sequence (P01375 whole entry, the tested form may be a part): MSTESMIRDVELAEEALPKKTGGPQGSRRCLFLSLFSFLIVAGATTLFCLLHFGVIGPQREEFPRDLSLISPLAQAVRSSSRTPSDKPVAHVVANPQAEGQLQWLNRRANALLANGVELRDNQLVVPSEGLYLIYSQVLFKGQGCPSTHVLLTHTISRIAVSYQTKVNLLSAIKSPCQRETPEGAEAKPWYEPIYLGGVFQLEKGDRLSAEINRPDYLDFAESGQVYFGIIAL

[8] = molecular target: T1, Nucleotide-binding oligomerization domain-containing protein 1 (Homo sapiens, UniProt Q9Y239); assay: NOD1 signaling inhibitors, SAR follow-up, revised (AID 2333); format: functional
T1 sequence (Q9Y239 whole entry): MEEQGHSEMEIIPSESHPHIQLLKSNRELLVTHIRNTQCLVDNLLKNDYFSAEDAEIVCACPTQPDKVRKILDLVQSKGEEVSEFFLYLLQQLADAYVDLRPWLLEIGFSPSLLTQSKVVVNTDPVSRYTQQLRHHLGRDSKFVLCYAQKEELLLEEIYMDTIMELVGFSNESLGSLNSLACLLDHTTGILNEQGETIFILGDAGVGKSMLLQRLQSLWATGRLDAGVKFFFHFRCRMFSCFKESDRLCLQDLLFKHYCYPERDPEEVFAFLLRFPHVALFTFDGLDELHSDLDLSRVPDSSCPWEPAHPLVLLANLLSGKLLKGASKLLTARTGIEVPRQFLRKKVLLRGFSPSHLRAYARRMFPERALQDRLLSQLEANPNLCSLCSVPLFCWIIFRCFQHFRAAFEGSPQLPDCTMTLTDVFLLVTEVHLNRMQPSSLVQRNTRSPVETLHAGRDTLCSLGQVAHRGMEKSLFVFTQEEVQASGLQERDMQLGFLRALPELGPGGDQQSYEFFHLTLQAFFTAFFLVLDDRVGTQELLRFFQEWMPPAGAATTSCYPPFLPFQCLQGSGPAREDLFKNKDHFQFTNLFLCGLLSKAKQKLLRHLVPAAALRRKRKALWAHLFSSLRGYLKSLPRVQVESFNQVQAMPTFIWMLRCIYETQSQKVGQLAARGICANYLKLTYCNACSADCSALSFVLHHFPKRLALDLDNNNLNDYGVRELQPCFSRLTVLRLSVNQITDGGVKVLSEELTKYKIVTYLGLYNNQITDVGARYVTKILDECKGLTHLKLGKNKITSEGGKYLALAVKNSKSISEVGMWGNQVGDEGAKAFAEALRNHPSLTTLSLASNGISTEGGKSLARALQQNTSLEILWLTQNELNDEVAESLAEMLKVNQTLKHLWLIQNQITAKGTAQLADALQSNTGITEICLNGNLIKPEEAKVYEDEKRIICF

[9] = HepG2 cell cytotoxicity, dose response, cytotoxicity control for Shn3 inhibitor project, CellTiter-Glo, cherry-picked (AID 624134); format: functional, cell-based
[10] = control 3'UTR Renilla luciferase suppression, dose response, counter-screen for Shn3 inhibitor project, cell-based, Clone20-Shn3RL, cherry-picked (AID 624133); format: functional
HEK293 [11] = assay: cells; format: functional, cell-based; conditions: Homo sapiens; remark: listed apart in the source
[12] = molecular target: T2, Serine/threonine-protein phosphatase (Candida dubliniensis (strain CD36 / CBS 7987 / NCPF 3949 / NRRLY-17841) (Yeast), UniProt B9W6M3); assay: calcineurin pathway inhibitors in yeast reporter, dose response, S. cerevisiae, CDRE-lacZ, luminescence, secondary (AID 2388); format: functional, cell-based;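 further: yeast reporter cells carrying a calcineurin-responsive lacZ construct stimulated with calcium chloride; luminescent beta-galactosidase reporter signal in whole cells rather than isolated phosphatase activity; potency for inhibition where a drop in reporter signal means calcineurin blockade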
T2 sequence (B9W6M3 whole entry): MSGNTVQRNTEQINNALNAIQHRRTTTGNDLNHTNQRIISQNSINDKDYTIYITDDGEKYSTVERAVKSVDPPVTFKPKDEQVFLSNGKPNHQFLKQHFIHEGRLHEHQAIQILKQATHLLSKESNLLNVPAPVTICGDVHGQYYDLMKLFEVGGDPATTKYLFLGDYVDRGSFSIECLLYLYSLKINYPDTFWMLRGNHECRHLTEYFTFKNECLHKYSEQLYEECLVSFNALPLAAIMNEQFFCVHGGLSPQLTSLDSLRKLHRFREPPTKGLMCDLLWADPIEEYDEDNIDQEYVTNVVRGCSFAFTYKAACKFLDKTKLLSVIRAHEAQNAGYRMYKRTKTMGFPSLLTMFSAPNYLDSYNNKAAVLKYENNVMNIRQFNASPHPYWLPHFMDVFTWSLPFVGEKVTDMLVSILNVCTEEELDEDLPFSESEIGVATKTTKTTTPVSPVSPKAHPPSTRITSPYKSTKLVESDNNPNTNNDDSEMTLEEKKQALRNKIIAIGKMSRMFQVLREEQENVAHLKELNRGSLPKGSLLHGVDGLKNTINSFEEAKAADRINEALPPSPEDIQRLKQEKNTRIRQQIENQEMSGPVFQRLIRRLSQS

HEK293 [13] = assay: NOD1 signaling inhibitors, primary screen, cell-based, luminescence, uHTS (AID 1578); format: functional; conditions: Homo sapiens
HEK293 [14] = assay: cells; conditions: Homo sapiens
[15] = C. albicans growth with fluconazole, confirmation, fluorescence, retest (AID 2467); format: functional, cell-based
[16] = NIH-3T3 fibroblast cytotoxicity, dose response, cytotoxicity control, cell-based, fluorescence, Alamar Blue, secondary assay (AID 2327); format: functional;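 further: NIH-3T3 mouse fibroblasts cultured with fluconazole at 8 µg/mL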
[17] = molecular target: T3, Corticotropin-releasing factor receptor 2/Corticotropin-releasing factor-binding protein (Homo sapiens, UniProt P24387+Q13324); assay: activators of CRF receptor 2 with binding protein – uHTS hits, confirmation (AID 602473); format: functional; conditions: read-out: EC50_Mean
T3 sequence (Q13324 whole entry): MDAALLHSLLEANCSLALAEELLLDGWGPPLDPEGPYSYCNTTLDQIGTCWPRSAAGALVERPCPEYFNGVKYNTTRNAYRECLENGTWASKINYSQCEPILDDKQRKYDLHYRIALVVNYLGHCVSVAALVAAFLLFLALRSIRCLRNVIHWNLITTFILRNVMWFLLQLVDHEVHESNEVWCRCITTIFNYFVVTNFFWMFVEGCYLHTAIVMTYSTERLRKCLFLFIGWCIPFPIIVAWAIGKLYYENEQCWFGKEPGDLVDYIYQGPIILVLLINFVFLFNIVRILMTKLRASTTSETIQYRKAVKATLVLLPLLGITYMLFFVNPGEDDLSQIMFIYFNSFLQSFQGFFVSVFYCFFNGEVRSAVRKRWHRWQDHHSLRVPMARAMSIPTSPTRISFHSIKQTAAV
T3 sequence (P24387 whole entry): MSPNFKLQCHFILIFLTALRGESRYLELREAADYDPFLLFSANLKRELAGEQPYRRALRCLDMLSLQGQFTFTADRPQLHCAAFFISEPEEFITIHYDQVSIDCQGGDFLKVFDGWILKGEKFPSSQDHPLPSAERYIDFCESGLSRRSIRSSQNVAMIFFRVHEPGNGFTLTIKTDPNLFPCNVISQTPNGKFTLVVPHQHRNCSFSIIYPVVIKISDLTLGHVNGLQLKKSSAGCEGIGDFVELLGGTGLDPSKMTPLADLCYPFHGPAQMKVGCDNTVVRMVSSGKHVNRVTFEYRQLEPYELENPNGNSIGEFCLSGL

[18] = cytotoxicity in HEK-293T cells, dose response, cytotoxicity control for TCR NF-kB inhibitor project, luminescence, T-cell screen hits (AID 489026); format: functional, cell-based;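 further: cells exposed to compound about 14 hours before the viability readout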
[19] = molecular target: T3, Corticotropin-releasing factor receptor 2/Corticotropin-releasing factor-binding protein; assay: Dose Response confirmation of uHTS hits for small molecule antagonists of the CRF-binding protein and CRF-R2 receptor complex.; format: functional; conditions: read-out: IC50_Mean
[20] = molecular target: T4, Calpain-2 catalytic subunit (Sus scrofa, UniProt P43367); assay: pig calpain II inhibitor potency, dose response, biochemical, fluorogenic peptide substrate (AID 1420); format: functional
T4 sequence (P43367 whole entry): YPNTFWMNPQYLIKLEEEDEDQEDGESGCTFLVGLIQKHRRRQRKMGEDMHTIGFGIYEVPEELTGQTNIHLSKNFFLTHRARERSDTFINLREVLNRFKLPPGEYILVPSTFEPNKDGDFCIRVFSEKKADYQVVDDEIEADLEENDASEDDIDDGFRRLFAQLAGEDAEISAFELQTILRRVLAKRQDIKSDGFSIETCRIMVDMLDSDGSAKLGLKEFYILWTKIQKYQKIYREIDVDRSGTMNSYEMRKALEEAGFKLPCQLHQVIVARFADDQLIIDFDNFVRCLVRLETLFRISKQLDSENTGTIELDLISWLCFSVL

Aspartyl aminopeptidase = molecular target: T5, Aspartyl aminopeptidase (Plasmodium falciparum 3D7, UniProt Q8I2J3); assay: Counterscreen for inhibitors of M1 and M17 aminopeptidases: QFRET-based biochemical high throughput dose response assay for inhibitors of the Plasmodium falciparum M18 Aspartyl Aminopeptidase (PFM18AAP). [Related PubChem assays: 1619 (Screening assay (M17LAP inhibitors).), 1445 (Screening assay (M1AAP inhibitors).)]
T5 sequence (Q8I2J3 whole entry): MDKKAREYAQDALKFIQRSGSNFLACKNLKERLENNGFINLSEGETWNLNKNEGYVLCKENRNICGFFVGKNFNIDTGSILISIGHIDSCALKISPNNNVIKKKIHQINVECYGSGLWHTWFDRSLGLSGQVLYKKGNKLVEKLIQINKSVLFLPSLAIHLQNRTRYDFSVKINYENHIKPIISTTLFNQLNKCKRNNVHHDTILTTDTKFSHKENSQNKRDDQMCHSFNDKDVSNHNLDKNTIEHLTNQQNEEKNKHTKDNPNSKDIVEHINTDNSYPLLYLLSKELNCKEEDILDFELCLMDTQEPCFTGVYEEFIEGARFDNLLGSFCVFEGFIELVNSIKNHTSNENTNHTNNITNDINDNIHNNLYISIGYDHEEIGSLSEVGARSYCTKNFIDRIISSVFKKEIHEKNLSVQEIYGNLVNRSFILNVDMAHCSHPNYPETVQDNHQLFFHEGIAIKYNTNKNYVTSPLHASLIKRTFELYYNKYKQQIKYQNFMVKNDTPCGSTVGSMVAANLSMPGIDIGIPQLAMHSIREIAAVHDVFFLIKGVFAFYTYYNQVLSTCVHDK

Procathepsin L = Procathepsin L (Homo sapiens, UniProt P07711); assay: cathepsin L inhibitors, dose response, counter-screen for M1/M17 aminopeptidase inhibitor project, biochemical, QFRET, 1536-well (AID 2214)
Procathepsin L, sequence (P07711 whole entry): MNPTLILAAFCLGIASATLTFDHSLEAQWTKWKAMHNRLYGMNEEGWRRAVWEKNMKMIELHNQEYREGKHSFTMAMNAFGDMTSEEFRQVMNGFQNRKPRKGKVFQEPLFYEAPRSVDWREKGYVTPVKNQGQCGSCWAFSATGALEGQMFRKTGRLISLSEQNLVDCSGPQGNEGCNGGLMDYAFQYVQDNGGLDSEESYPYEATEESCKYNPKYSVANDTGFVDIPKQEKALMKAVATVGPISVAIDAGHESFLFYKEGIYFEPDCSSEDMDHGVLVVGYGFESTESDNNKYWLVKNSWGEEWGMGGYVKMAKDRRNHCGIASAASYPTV

Leucine aminopeptidase = molecular target: T6, Leucine aminopeptidase (Plasmodium falciparum 3D7, UniProt Q8IL11); assay: P. falciparum M17LAP inhibitors, primary screen, biochemical, fluorogenic H-Leu-NHMec substrate, 1536-well (AID 1619); format: functional
T6 sequence (Q8IL11 whole entry): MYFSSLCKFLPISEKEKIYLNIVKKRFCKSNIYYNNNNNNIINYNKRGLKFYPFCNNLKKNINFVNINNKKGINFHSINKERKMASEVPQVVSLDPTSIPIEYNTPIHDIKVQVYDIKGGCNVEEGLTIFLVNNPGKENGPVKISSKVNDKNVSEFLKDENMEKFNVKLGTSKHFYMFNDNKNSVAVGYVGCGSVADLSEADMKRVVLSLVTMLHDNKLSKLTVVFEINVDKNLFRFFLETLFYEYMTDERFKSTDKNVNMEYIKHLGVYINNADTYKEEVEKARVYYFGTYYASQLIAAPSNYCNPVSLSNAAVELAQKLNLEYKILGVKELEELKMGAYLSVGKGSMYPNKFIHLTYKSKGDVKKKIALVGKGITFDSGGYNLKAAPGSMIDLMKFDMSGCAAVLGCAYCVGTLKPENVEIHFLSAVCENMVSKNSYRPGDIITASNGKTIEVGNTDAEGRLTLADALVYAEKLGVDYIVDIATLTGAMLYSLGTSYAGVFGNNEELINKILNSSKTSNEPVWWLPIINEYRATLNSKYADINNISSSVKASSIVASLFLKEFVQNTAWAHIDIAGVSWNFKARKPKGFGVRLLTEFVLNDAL

CC1CCCCN1c1nnc(NC(=O)c2cc(-c3ccc(Br)cc3)on2)s1 (stereo unspecified)
active: IC50 [1] 29 µM

O=C(c1ccc(Cn2c(=S)[nH]c3ccccc3c2=O)cc1)N1CCN(c2ccccn2)CC1
active: AC50 [2] 6.34 µM | IC50 (HEK293 [3]) 6.05 µM | EC50 [4] 5.49 µM | IC50 (HEK293 [6]) 7.1 µM | IC50 (Tumor necrosis factor) 7.61 µM | IC50 [8] 5.3 µM | AC50 [9] 59.2 µM | AC50 [10] 31.4 µM | IC50 (HEK293 [11]) 13.9 µM | EC50 (HEK293 [13]) 9 µM | IC50 (HEK293 [14]) 12.6 µM | EC50 [15] 0.549 µM
inactive: IC50 (HEK293 [5]) > 20 µM | EC50 [7] > 150 µM | EC50 [12] > 180 µM
inconclusive: EC50 [16] 12.4 µM

O=C(Nc1ccc(Oc2cccnc2)nc1)c1ccc(C(F)(F)F)cc1
inactive: EC50 [17] > 53 µM | IC50 (HEK293 [5]) > 20 µM | IC50 [18] > 80 µM | IC50 [19] > 47.1 µM | IC50 (HEK293 [14]) > 20 µM
48.1 µM (not active): IC50 [20]
active: IC50 (HEK293 [3]) 4.32 µM | IC50 (HEK293 [6]) 8.57 µM | IC50 (Tumor necrosis factor) 2.79 µM | IC50 [8] 2.26 µM | EC50 (HEK293 [13]) 2.4 µM

O=C(CSc1nccc(=O)[nH]1)Nc1ccc(F)c(Cl)c1
> 73.5 µM (not active): IC50 (Aspartyl aminopeptidase)
active: IC50 (Leucine aminopeptidase) 6.03 µM
> 59.6 µM (not active): IC50 (Procathepsin L)
